From article PMC10545747, “Development of cyclopeptide inhibitors of cGAS targeting protein-DNA interaction and phase separation” (Nature Communications, 2023)
Values after ≈ are worked out from the molar mass of the structure shown. Values joined by “and” are separate entries in the source; they are usually repeats but may differ in a detail not shown here. Identical values can stand only once. Like-named read-outs stand apart in the source and are kept apart here. Square brackets hold non-standard residues; d marks the D form. Peptide text beside a SMILES is read from it.

Assays:
Jurkat cells = system: Jurkat cells
Protocol: (§1) Cell viability was measured by cell counting kit-8 (TargetMol) according to the manufacturer’s instructions.
Supplementary Fig. 3. […] (a) L929 cells were pretreated for
4 h with DMSO or the indicated doses of XQ2, followed by stimulation with dsDNA for 4 h, and then cell lysates were
(b) Jurkat cells were exposed to the indicated doses of XQ2, and then stimulated with
Data are representative of three independent experiments in (a, b). (Data are presented as mean ± SD, n = 3 independent
provided as a Source Data file.
(1 picture or pasted object on this page, not shown here)

[1] = system: macrophage RAW264.7 cells; assay: qPCR of Ifnb1/Cxcl10/Il6 mRNA in RAW264.7 cells (ISD or HSV-1); assay type: cell-based, mouse; parameters: key to Ifnb1 mRNA (Fig. S2c) / Cxcl10 mRNA (Fig. S2c) / Ifnb1 mRNA (Fig. S2d) / Cxcl10 mRNA (Fig. S2d) / Ifnb1 mRNA (Fig. S7g) / Cxcl10 mRNA (Fig. S7g) / Il6 mRNA (Fig. S7g): mRNA level normalized to GAPDH (relative expression)
Protocol: The indicated cells were stimulated with either ISD (Sangon Biotech), HSV-1 (Provided by Dr. Zhengfan Jiang), HSV60mer (Sangon Biotech), SATE-cddA[70], 2’3’-cGAMP (Invivogen, Cat# tlrl-nacga23-1), ADU-S100 (MedChemExpress, Cat# HY-12885A) or Poly(I:C) (Invivogen, Cat# tlrl-pic) after XQ2 or XQ2B treatment. Total RNA was isolated from indicated cells that incubated with the drugs for indicated time or mice tissues by using NucleoZOL reagent (MACHEREY-NAGEL) according to the manufacturer’s instructions. The quantifications of mRNA levels were carried out by real-time PCR using a PerfectStart® Uni RT&qPCR Kit (TransGen Biotech) on the QuantStudio 5 qPCR machine (Applied Biosystems). Samples were carried out in triplicate and the target CT values were normalized to GAPDH CT values. Primers of qPCR used in this study can be found in Supplementary Table S2. […]
(c) L929, p = 0.0005 (Ifnb1),
BMDMs, p = 0.0001 (Ifnb1), p < 0.0001 (Cxcl10).
representative of three independent experiments in (a-g). (Data are presented as mean ± SD, n = 3 independent
Source data are provided as a Source Data file.

THP1 cells = assay: Cell viability (CCK-8), cytotoxicity; conditions: for Cell viability (Fig. S2e): THP1 (48h)
Protocol: as §1
(§2) Supplementary Fig. 2. […]
(§3) (e-g) THP1 cells (e), L929 cells (f) and RAW264.7 cells (g) were exposed to the indicated doses of XQ2 for 48h, the cell viability was measured by CCK8 assay. Data are representative of three independent experiments in (a-g). (Data are presented as mean ± SD, n = 3 independent samples in (a-g), **p < 0.01, ***p < 0.001, ****p < 0.0001 using one-way ANOVA with Dunnett’s post hoc test).
(§4) Source data are provided as a Source Data file. […]
(§5) Relative viability(%) XQ2B
(§6) Supplementary Fig. 7. […] (a) THP1 cells were exposed to the indicated doses of XQ2 or XQ2B for 48h. The cell viability was measured by CCK8 assay. […]
(§7) Data are representative of three independent experiments with similar results in (e), or three independent experiments in (a -d, f, g) . (Data are presented as mean ± SD, n = 3 independent samples in (a-d, f, g), ns, not significant, **p < 0.01, ***p < 0.001, ****p < 0.0001 using one-way ANOV A with Dunnett’s post hoc test). Source data are provided as a Source Data file.

[2] = Cell viability (CCK-8), cytotoxicity; conditions: human, THP1 cells
Protocol: as §1, §2, §3, §4, §5, §6, §7

[3] = system: HSV-1-infected THP1 cells; assay: HSV-1 cytopathogenic effect, CCK-8 viability; assay type: cell-based, human; conditions: for cell viability, CCK-8, Fig. 5e: XQ2 10 μM
[4] = system: THP1 cells stimulated with poly (I: C) (TLR3 and RIG-I/MDA-5 pathways); assay: qPCR of IFNB1 mRNA in THP1 cells stimulated by poly (I: C); assay type: cell-based, human
Source text: We next evaluated the inhibitory effect of XQ2 against cGAS in murine fibroblast L929 cells, macrophage RAW264.7 cells and primary bone marrow-derived macrophages (BMDMs) from C57BL/6 mice.
The indicated cells were stimulated with either ISD (Sangon Biotech), HSV-1 (Provided by Dr. Zhengfan Jiang), HSV60mer (Sangon Biotech), SATE-cddA[70], 2’3’-cGAMP (Invivogen, Cat# tlrl-nacga23-1), ADU-S100 (MedChemExpress, Cat# HY-12885A) or Poly(I:C) (Invivogen, Cat# tlrl-pic) after XQ2 or XQ2B treatment. Total RNA was isolated from indicated cells that incubated with the drugs for indicated time or mice tissues by using NucleoZOL reagent (MACHEREY-NAGEL) according to the manufacturer’s instructions. The quantifications of mRNA levels were carried out by real-time PCR using a PerfectStart® Uni RT&qPCR Kit (TransGen Biotech) on the QuantStudio 5 qPCR machine (Applied Biosystems). Samples were carried out in triplicate and the target CT values were normalized to GAPDH CT values. Primers of qPCR used in this study can be found in Supplementary Table S2.

physchem = assay: physchem
Protocol: Supplementary Fig. 7. […] (a) THP1 cells were exposed to the indicated doses of XQ2 or XQ2B for 48h. The cell viability was measured by CCK8 assay. (b) The comparison of solubility of XQ2 and XQ2B. The maximum concentration of XQ2 or XQ2B dissolved in water was measured by a spectrophotometer at 280nm. […]
as §7

CC(C)C[C@@H]1NC(=O)[C@H](CCCNC(=N)N)NC(=O)[C@H](C(C)C)NC(=O)[C@@H]2CCCN2C(=O)[C@@H](Cc2ccccc2)NC(=O)[C@H](CC(C)C)NC(=O)[C@H](CCCNC(=N)N)NC(=O)[C@H](C(C)C)NC(=O)[C@H](C)NC(=O)[C@@H](Cc2ccccc2)NC1=O [XQ2, Cyclo (LfAVRLfPVR)] (cyclo(L[dF]AVRL[dF]PVR))
ISD-induced cell death (Jurkat cells): markedly suppressed ISD-induced cell death
Ifnb1 and Cxcl10 expression induced by ISD and HSV-1 ([1]; RAW264.7, 10 μM): significantly inhibited the expression of Ifnb1 and its downstream gene Cxcl10
Cxcl10 mRNA (Fig. S2d) ([1]; RAW264.7, HSV-1+XQ2): 226.869 and 260.086 and 204.298
Ifnb1 mRNA (Fig. S2d) ([1]; RAW264.7, HSV-1+XQ2): 1317.92 and 1543.45 and 1644.53
Cxcl10 mRNA (Fig. S2c) ([1]; RAW264.7, ISD+XQ2): 1626.72 and 1806.59 and 1855.72
Ifnb1 mRNA (Fig. S2c) ([1]; RAW264.7, ISD+XQ2): 12350.6 and 12954.9 and 11525.9
Cxcl10 mRNA (Fig. S2c) ([1]; RAW264.7, XQ2 alone): 3.511 and 3.569 and 3.235
Cxcl10 mRNA (Fig. S2d) ([1]; RAW264.7, XQ2 alone): 3.511 and 3.569 and 3.235
Ifnb1 mRNA (Fig. S2c) ([1]; RAW264.7, XQ2 alone): 1.57 and 1.726 and 1.836
Ifnb1 mRNA (Fig. S2d) ([1]; RAW264.7, XQ2 alone): 1.57 and 1.726 and 1.836
Cell viability (Fig. S2e) (THP1 cells; XQ2 0.16 μM): 87.186 and 98.2321
Cell viability (Fig. S2e) (THP1 cells; XQ2 0.31 μM): 93.9161 and 92.7457
Cell viability (Fig. S2e) (THP1 cells; XQ2 0.63 μM): 102.329 and 90.4779
Cell viability (Fig. S2e) (THP1 cells; XQ2 1.25 μM): 94.1356 and 101.451
Cell viability (Fig. S2e) (THP1 cells; XQ2 2.5 μM): 93.4772 and 103.426
Cell viability (Fig. S2e) (THP1 cells; XQ2 5 μM): 89.1612 and 96.4765
Cell viability (Fig. S2e) (THP1 cells; XQ2 10 μM): 102.841 and 97.9395
IC50 (THP1 cells; read-out: IC50, cell viability (CCK8), Fig. S7a, THP1, 48h): 24.3 ± 8.9 µM
viability at 48 h, 0.16 µM ([2]; Cell viability (Fig. S2e), THP1 (48h), XQ2 0.16 μM): 87.4%
viability at 48 h, 0.31 µM ([2]; Cell viability (Fig. S2e), THP1 (48h), XQ2 0.31 μM): 103%
viability at 48 h, 0.63 µM ([2]; Cell viability (Fig. S2e), THP1 (48h), XQ2 0.63 μM): 94.8%
viability at 48 h, 1.25 µM ([2]; Cell viability (Fig. S2e), THP1 (48h), XQ2 1.25 μM): 95.7%
viability at 48 h, 2.5 µM ([2]; Cell viability (Fig. S2e), THP1 (48h), XQ2 2.5 μM): 92.5%
viability at 48 h, 5 µM ([2]; Cell viability (Fig. S2e), THP1 (48h), XQ2 5 μM): 90.4%
viability at 48 h, 10 µM ([2]; Cell viability (Fig. S2e), THP1 (48h), XQ2 10 μM): 93.6%
viability at 48 h, 0.3125 µM ([2]; Cell viability (Fig. S7a), XQ2 312.5 nM): 103%
viability at 48 h, 0.625 µM ([2]; Cell viability (Fig. S7a), XQ2 625 nM): 94.8%
viability at 48 h, 1.25 µM ([2]; Cell viability (Fig. S7a), XQ2 1250 nM): 95.7%
viability at 48 h, 2.5 µM ([2]; Cell viability (Fig. S7a), XQ2 2500 nM): 92.5%
viability at 48 h, 5 µM ([2]; Cell viability (Fig. S7a), XQ2 5000 nM): 90.4%
viability at 48 h, 10 µM ([2]; Cell viability (Fig. S7a), XQ2 10000 nM): 93.6%
viability at 48 h, 20 µM ([2]; Cell viability (Fig. S7a), XQ2 20000 nM): 56.9%
viability at 48 h, 40 µM ([2]; Cell viability (Fig. S7a), XQ2 40000 nM): 4.01%
viability at 48 h, 80 µM ([2]; Cell viability (Fig. S7a), XQ2 80000 nM): 6.79%
viability at 48 h, 160 µM ([2]; Cell viability (Fig. S7a), XQ2 160000 nM): 6.84%
viability at 48 h, 320 µM ([2]; Cell viability (Fig. S7a), XQ2 320000 nM): 6.36%
HSV-1 cytopathogenic effect in THP1 cells ([3]; 10 μM): HSV-1 produced marked cytopathogenic effect (CPE) in THP1 cells in the presence of XQ2
cell viability, CCK-8, Fig. 5e ([3]; Ctl): 102.857 and 110.714 and 112.321
cell viability, CCK-8, Fig. 5e ([3]; HSV-1 1×10^4 pfu): 101.071 and 114.286 and 103.571
cell viability, CCK-8, Fig. 5e ([3]; HSV-1 1×10^5 pfu): 37.5 and 43.3929 and 38.0357
cell viability, CCK-8, Fig. 5e ([3]; HSV-1 2×10^4 pfu): 57.3214 and 52.5 and 50.7143
cell viability, CCK-8, Fig. 5e ([3]; HSV-1 5×10^4 pfu): 52.8571 and 47.6786 and 46.7857
poly (I: C)-induced IFNB1 expression ([4]; THP1, 10 μM): did not affect the expression of IFNΒ1 induced by poly (I: C)
IFNB1 mRNA, qPCR, Fig. 2b ([4]; THP1, Poly(I:C), 10 μM): 400.477 and 440.107 and 373.524
solubility (physchem): low solubility at higher concentrations
solubility (physchem; Concentration (solubility, Fig. S7b)): 860 µg/mL (≈ 717 µM)
